# Source: patent US20230089715A1, “MASITINIB FOR THE TREATMENT OF A MULTIPLE SCLEROSIS PATIENT SUBPOPULATION” (AB SCIENCE, priority 2020, published 2023)
# Test system: patients with progressive multiple sclerosis (PPMS or non-active SPMS)
# Assay: Study AB07002: randomized, double-blind, placebo-controlled phase 3 study, overall EDSS change from baseline
# Assay type: in vivo, human
# Set-up: key to LSM EDSS, MAS (overall EDSS change from baseline): LS mean EDSS change from baseline; positive value = worsening
# Conditions: 4.5 mg/kg/day oral; for ΔEDSS (between group difference, treatment-effect vs placebo) / LSM EDSS, MAS (overall EDSS change from baseline) / R % (relative difference in ΔEDSS with respect to full analysis dataset): 96 weeks; for treatment-effect with respect to placebo (EDSS): non-active SPMS
# Experimental: An international, multicenter, randomized, double-blind, placebo-controlled phase 3 study was conducted with the objective to evaluate oral masitinib at a dose of 4.5 mg/kg/day as a treatment for progressive multiple sclerosis (progressive MS), as defined hereinabove. […] Eligible patients were treated for 96 weeks with masitinib at a dose of 4.5 mg/kg/day (mg per kilo body weight per day) or with placebo. Primary endpoint was overall EDSS change from baseline using a repeated analysis of covariance model (i.e., ANCOVA GEE model on all measurements from week 12 (W12) to week 96 (W96)). Results are expressed as least-squares means difference, illustrating the progression of EDSS score, that is to say the change over time in the EDSS score or in other words the difference between the EDSS score at baseline and the EDSS score after treatment with masitinib or with placebo (a positive value indicates a worsening of the patient). Treatment-effect is reported as between-group difference (ΔLSM, negative value indicates a beneficial effect of treatment with masitinib as compared to treatment with placebo). […] Patients suffering from a disease other than MS that would better explain their neurological clinical signs and symptoms and/or lesions observed with magnetic resonance imaging (“MRI lesions”) were excluded. Subpopulation analyses of primary endpoint data from study AB07002 assessed the impact of the clinical markers ‘time from onset’ with respect to baseline (i.e., date of treatment initiation), derived from the estimated date of first clinical MS symptom(s), or ‘time from diagnosis’ with respect to baseline (i.e., date of treatment initiation), on masitinib efficacy in patients with progressive MS (see Example 3). ‘Time from onset’ is derived from the date (year/month/day, year/month, or year) of first clinical symptom(s) with duration calculated from date of treatment initiation. The date of first symptom(s) is typically determined retrospectively from medical history, for example from medical records and patient/caregiver historical recall of MS related symptoms following a clinically definite diagnosis. Imputation of missing data can be handled using various methods, one example of which is the following approach: if the information regarding day is missing, the day is considered to be the last day of the month; if the day and month are missing, the day is considered to be the last day of June. ‘Time from diagnosis’ of progressive MS, is ideally based on a clinically definite diagnosis of progressive MS as determined by a MS specialist neurologist. In practice it is derived from the date (year/month/day, year/month, or year) of first clinically definite diagnosis of progressive MS, i.e., PPMS or non-active SPMS, with duration calculated from date of treatment initiation. At the time of MS diagnosis, a provisional disease course should be specified (relapsing-remitting, primary progressive, or secondary progressive) and whether the course is active or not (non-active) and progressive or not based on the previous year's history. The phenotype should be periodically re-evaluated based on accumulated information. Comparison of subpopulation analyses with respect to the corresponding full analysis dataset (see Table 4) is reported as relative difference in ΔEDSS (R %). A large positive R % value indicates a subpopulation that receives greater benefit from masitinib treatment, while a negative R % value indicates a diminished treatment-effect or lack of discernable treatment-effect in the subpopulation.
# [1] = nSPMS, T(diag) > 2 Y and T(onset) > 5 Y
structure (smiles),measurement,setting,value
"Cc1ccc(NC(=O)c2ccc(CN3CCN(C)CC3)cc2)cc1Nc1nc(-c2cccnc2)cs1 [masitinib, 4-(4-methylpiperazin-1-ylmethyl)-N-[4-methyl-3-(4-pyridin-3ylthiazol-2-ylamino)phenyl]benzamide]","ΔEDSS (between group difference, treatment-effect vs placebo)","Progressive MS, T(diag) ≤ 1 Y",0.261
same,"LSM EDSS, MAS (overall EDSS change from baseline)","Progressive MS, T(diag) ≤ 2 Y",0.163
same,"LSM EDSS, MAS (overall EDSS change from baseline)","Progressive MS, T(diag) ≤ 3 Y",0.056
same,"ΔEDSS (between group difference, treatment-effect vs placebo)","Progressive MS, T(diag) ≤ 3 Y",0.053
same,"LSM EDSS, MAS (overall EDSS change from baseline)","Progressive MS, T(diag) ≤ 4 Y",0.075
same,"ΔEDSS (between group difference, treatment-effect vs placebo)","Progressive MS, T(diag) ≤ 4 Y",−0.028
same,"LSM EDSS, MAS (overall EDSS change from baseline)","Progressive MS, T(onset) > 1 Y",0.012
same,R % (relative difference in ΔEDSS with respect to full analysis dataset),"Progressive MS, T(onset) > 1 Y",−5%
same,"ΔEDSS (between group difference, treatment-effect vs placebo)","Progressive MS, T(onset) > 1 Y",−0.094
same,"LSM EDSS, MAS (overall EDSS change from baseline)","Progressive MS, T(onset) > 2 Y",0.004
same,R % (relative difference in ΔEDSS with respect to full analysis dataset),"Progressive MS, T(onset) > 2 Y",1%
same,"ΔEDSS (between group difference, treatment-effect vs placebo)","Progressive MS, T(onset) > 2 Y",−0.100
same,"LSM EDSS, MAS (overall EDSS change from baseline)","Progressive MS, T(onset) > 3 Y",−0.010
same,R % (relative difference in ΔEDSS with respect to full analysis dataset),"Progressive MS, T(onset) > 3 Y",20%
same,"ΔEDSS (between group difference, treatment-effect vs placebo)","Progressive MS, T(onset) > 3 Y",−0.119
same,"LSM EDSS, MAS (overall EDSS change from baseline)","Progressive MS, T(onset) > 4 Y",−0.027
same,R % (relative difference in ΔEDSS with respect to full analysis dataset),"Progressive MS, T(onset) > 4 Y",29%
same,"ΔEDSS (between group difference, treatment-effect vs placebo)","Progressive MS, T(onset) > 4 Y",−0.128
same,"LSM EDSS, MAS (overall EDSS change from baseline)","Progressive MS, T(onset) > 5 Y",−0.031
same,"ΔEDSS (between group difference, treatment-effect vs placebo)","Progressive MS, T(onset) > 5 Y",−0.156
same,R % (relative difference in ΔEDSS with respect to full analysis dataset),"Progressive MS, T(onset) > 5 Y, 4.5 mg/kg/day",58%
same,"LSM EDSS, MAS (overall EDSS change from baseline)","Progressive MS, T(onset) ≤ 3 Y",0.106
same,"ΔEDSS (between group difference, treatment-effect vs placebo)","Progressive MS, T(onset) ≤ 3 Y",0.346
same,"LSM EDSS, MAS (overall EDSS change from baseline)","Progressive MS, T(onset) ≤ 4 Y",−0.000
same,"ΔEDSS (between group difference, treatment-effect vs placebo)","Progressive MS, T(onset) ≤ 4 Y",0.146
same,"LSM EDSS, MAS (overall EDSS change from baseline)","Progressive MS, T(onset) ≤ 5 Y",0.259
same,"LSM EDSS, MAS (overall EDSS change from baseline)","Progressive MS, complement T(diag) ≤ 2 Y or T(onset) ≤ 5 Y",0.173
same,"LSM EDSS, MAS (overall EDSS change from baseline)","Progressive MS, full analysis dataset",0.008
same,"ΔEDSS (between group difference, treatment-effect vs placebo)","Progressive MS, full analysis dataset, 4.5 mg/kg/day",−0.099
same,"ΔEDSS (between group difference, treatment-effect vs placebo)","Progressive MS, full analysis dataset, listed as Masitinib, 4.5 mg/kg/day",significant slowing of EDSS progression
same,"LSM EDSS, MAS (overall EDSS change from baseline)","nSPMS, T(diag) > 1 Y",−0.039
same,R % (relative difference in ΔEDSS with respect to full analysis dataset),"nSPMS, T(diag) > 1 Y",6%
same,"ΔEDSS (between group difference, treatment-effect vs placebo)","nSPMS, T(diag) > 1 Y",−0.101
same,"LSM EDSS, MAS (overall EDSS change from baseline)",[1],−0.051
same,"ΔEDSS (between group difference, treatment-effect vs placebo)",[1],−0.118
same,R % (relative difference in ΔEDSS with respect to full analysis dataset),"nSPMS, T(diag) > 2 Y and T(onset) > 5 Y, 4.5 mg/kg/day",24%
same,"LSM EDSS, MAS (overall EDSS change from baseline)","nSPMS, T(diag) > 2 Y",−0.039
same,R % (relative difference in ΔEDSS with respect to full analysis dataset),"nSPMS, T(diag) > 2 Y",7%
same,"LSM EDSS, MAS (overall EDSS change from baseline)","nSPMS, T(diag) > 3 Y",−0.045
same,R % (relative difference in ΔEDSS with respect to full analysis dataset),"nSPMS, T(diag) > 3 Y",13%
same,"LSM EDSS, MAS (overall EDSS change from baseline)","nSPMS, T(diag) > 4 Y",−0.050
same,R % (relative difference in ΔEDSS with respect to full analysis dataset),"nSPMS, T(diag) > 4 Y",29%
same,"ΔEDSS (between group difference, treatment-effect vs placebo)","nSPMS, T(diag) > 4 Y",−0.123
same,"LSM EDSS, MAS (overall EDSS change from baseline)","nSPMS, T(diag) ≤ 4 Y",0.036
same,"ΔEDSS (between group difference, treatment-effect vs placebo)","nSPMS, T(diag) ≤ 4 Y",−0.004
same,"LSM EDSS, MAS (overall EDSS change from baseline)","nSPMS, T(onset) > 1 Y",−0.035
same,R % (relative difference in ΔEDSS with respect to full analysis dataset),"nSPMS, T(onset) > 1 Y",0%
same,"ΔEDSS (between group difference, treatment-effect vs placebo)","nSPMS, T(onset) > 1 Y",−0.095
same,"LSM EDSS, MAS (overall EDSS change from baseline)","nSPMS, T(onset) > 2 Y",−0.035
same,R % (relative difference in ΔEDSS with respect to full analysis dataset),"nSPMS, T(onset) > 2 Y",0%
same,"ΔEDSS (between group difference, treatment-effect vs placebo)","nSPMS, T(onset) > 2 Y",−0.095
same,"LSM EDSS, MAS (overall EDSS change from baseline)","nSPMS, T(onset) > 3 Y",−0.037
same,R % (relative difference in ΔEDSS with respect to full analysis dataset),"nSPMS, T(onset) > 3 Y",7%
same,"ΔEDSS (between group difference, treatment-effect vs placebo)","nSPMS, T(onset) > 3 Y",−0.102
same,"LSM EDSS, MAS (overall EDSS change from baseline)","nSPMS, T(onset) > 4 Y",−0.040
same,R % (relative difference in ΔEDSS with respect to full analysis dataset),"nSPMS, T(onset) > 4 Y",16%
same,"ΔEDSS (between group difference, treatment-effect vs placebo)","nSPMS, T(onset) > 4 Y",−0.110
same,"LSM EDSS, MAS (overall EDSS change from baseline)","nSPMS, T(onset) > 5 Y",−0.050
same,R % (relative difference in ΔEDSS with respect to full analysis dataset),"nSPMS, T(onset) > 5 Y",23%
same,"LSM EDSS, MAS (overall EDSS change from baseline)","nSPMS, full analysis dataset",−0.035
same,"ΔEDSS (between group difference, treatment-effect vs placebo)","nSPMS, full analysis dataset, 4.5 mg/kg/day",−0.095
same,"ΔEDSS (between group difference, treatment-effect vs placebo)","nSPMS, full analysis dataset, listed as Masitinib, 4.5 mg/kg/day",significant slowing of EDSS progression
same,treatment-effect with respect to placebo (EDSS),time from diagnosis to treatment initiation of no more than 2 year,no discernable treatment-effect
same,treatment-effect with respect to placebo (EDSS),time from onset to treatment initiation of no more than 5 year,no discernable treatment-effect
